# Source: BindingDB's records for PubMed 29032032 (Quaid-I-Azam University, 2017)
# pIC50: −log10 of the molar value.
# Biological target: Alpha-glucosidase (Saccharomyces cerevisiae)
# Assay: Inhibition of Saccharomyces cerevisiae alpha-glucosidase using pNPG as substrate incubated for 30 mins by microplate reader analysis
row,pIC50,SMILES
1,7.07,COc1cc2cc(Oc3ccc4ccc(=O)oc4c3)c(=O)oc2cc1O [Daphnoretin]
2,6.64,COc1cc2c(O)c(Oc3cc(O[C@@H]4O[C@H](CO)[C@@H](O)[C@H](O)[C@H]4O[C@@H]4O[C@H](CO)[C@@H](O)[C@H](O)[C@H]4O)c4ccc(=O)oc4c3)c(=O)oc2cc1O
3,7.30,"O=c1ccc2ccc(Oc3cc4cc(O)c(O)cc4oc3=O)cc2o1 [6,7-dihydroxy-3,7'-dicoumaryl ether]"

# Biological target: Maltase-glucoamylase (Homo sapiens, UniProt O43451)
# Sequence (O43451 whole entry): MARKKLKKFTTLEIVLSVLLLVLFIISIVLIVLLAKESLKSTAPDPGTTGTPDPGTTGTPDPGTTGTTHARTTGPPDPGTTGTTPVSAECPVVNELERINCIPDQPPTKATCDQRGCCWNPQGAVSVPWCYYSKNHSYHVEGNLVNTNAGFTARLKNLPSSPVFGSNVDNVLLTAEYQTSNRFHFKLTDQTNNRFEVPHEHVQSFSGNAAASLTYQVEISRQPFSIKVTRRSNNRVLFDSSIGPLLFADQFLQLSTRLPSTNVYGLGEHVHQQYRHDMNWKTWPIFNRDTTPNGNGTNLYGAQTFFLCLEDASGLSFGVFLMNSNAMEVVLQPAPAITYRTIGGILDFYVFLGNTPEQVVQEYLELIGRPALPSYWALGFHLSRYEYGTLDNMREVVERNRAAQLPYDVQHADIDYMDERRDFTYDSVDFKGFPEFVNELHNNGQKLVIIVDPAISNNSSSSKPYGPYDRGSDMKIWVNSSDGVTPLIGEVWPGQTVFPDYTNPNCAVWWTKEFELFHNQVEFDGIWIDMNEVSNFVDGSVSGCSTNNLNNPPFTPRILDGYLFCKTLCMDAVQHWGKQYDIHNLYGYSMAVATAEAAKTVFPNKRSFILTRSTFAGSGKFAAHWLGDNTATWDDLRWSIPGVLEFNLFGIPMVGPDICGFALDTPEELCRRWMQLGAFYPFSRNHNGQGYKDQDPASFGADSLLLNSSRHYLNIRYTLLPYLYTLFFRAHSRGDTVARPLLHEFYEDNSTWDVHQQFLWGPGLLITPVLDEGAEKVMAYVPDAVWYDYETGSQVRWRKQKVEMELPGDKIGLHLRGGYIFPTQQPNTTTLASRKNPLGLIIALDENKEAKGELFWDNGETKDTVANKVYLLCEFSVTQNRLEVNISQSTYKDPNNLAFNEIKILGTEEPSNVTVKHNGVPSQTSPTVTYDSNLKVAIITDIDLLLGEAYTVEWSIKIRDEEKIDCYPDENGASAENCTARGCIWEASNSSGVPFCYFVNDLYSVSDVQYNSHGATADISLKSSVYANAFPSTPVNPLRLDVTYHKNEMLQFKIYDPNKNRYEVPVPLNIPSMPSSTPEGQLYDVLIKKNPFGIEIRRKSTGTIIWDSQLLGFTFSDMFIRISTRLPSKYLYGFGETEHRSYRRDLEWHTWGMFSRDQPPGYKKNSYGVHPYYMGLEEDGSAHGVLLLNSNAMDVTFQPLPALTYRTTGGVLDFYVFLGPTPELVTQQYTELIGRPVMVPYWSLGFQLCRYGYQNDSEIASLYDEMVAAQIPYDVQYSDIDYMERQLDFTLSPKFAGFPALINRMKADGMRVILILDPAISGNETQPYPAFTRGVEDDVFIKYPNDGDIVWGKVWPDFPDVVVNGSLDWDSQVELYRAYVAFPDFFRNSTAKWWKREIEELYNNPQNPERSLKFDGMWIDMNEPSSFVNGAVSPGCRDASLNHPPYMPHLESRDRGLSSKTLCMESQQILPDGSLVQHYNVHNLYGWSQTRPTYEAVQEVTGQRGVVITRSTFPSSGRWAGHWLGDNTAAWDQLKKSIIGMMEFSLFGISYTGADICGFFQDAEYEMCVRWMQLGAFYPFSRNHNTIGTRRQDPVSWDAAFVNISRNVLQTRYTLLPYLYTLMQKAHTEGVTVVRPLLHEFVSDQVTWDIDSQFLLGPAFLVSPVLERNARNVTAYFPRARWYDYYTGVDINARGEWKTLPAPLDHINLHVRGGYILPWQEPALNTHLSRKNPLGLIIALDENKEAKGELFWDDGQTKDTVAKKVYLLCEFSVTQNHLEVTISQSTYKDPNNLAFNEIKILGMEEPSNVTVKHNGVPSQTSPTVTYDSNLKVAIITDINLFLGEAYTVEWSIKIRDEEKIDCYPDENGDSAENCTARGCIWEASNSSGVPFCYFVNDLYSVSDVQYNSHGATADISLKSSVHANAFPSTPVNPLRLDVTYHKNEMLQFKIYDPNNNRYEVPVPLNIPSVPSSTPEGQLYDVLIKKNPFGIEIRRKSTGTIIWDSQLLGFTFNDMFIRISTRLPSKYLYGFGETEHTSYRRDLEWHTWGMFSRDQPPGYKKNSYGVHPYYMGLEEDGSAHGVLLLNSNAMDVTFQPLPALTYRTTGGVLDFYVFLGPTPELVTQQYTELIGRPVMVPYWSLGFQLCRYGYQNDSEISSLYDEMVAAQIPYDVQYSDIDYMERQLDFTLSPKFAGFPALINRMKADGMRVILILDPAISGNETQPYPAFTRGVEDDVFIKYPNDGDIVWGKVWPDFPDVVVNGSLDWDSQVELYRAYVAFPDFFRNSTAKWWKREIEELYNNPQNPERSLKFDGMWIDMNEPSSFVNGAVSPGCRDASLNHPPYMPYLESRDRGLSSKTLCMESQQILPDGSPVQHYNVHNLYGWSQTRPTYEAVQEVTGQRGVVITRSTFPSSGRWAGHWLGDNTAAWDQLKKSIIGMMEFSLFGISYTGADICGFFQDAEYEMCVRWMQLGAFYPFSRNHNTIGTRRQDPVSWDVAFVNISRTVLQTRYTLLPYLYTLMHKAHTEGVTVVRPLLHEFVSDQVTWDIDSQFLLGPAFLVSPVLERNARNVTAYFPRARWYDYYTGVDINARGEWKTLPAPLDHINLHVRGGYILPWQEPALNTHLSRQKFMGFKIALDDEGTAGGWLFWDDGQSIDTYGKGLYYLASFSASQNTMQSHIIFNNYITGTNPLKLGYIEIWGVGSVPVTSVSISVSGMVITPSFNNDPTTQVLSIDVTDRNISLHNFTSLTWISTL
# Assay: Inhibition of alpha-glucosidase (unknown origin)
row,SMILES,pIC50
1,COc1ccc(C(c2c(O)c3cc(C)ccc3oc2=O)c2c(O)c3cc(C)ccc3oc2=O)cc1 [acs.jmedchem.1c00409_ST.500],3.97
2,COc1cc(C(c2c(O)c3cc(Cl)ccc3oc2=O)c2c(O)c3cc(Cl)ccc3oc2=O)cc(OC)c1OC,3.89
3,O=c1oc2ccc(Cl)cc2c(O)c1C(c1ccc(Cl)cc1Cl)c1c(O)c2cc(Cl)ccc2oc1=O,4.78
4,O=c1oc2ccc(Cl)cc2c(O)c1C(c1cccc([N+](=O)[O-])c1)c1c(O)c2cc(Cl)ccc2oc1=O,4.57
5,COc1ccc(C(c2c(O)c3cc(Cl)ccc3oc2=O)c2c(O)c3cc(Cl)ccc3oc2=O)cc1OC,4.04
6,COc1cc(C(c2c(O)c3cc(Cl)ccc3oc2=O)c2c(O)c3cc(Cl)ccc3oc2=O)ccc1O,4.08
7,O=c1oc2ccc(Cl)cc2c(O)c1C(c1cccc(O)c1)c1c(O)c2cc(Cl)ccc2oc1=O,4.08
8,CCOc1cc(C(c2c(O)c3cc(Cl)ccc3oc2=O)c2c(O)c3cc(Cl)ccc3oc2=O)ccc1O,4.24
9,CCOc1cc(C(c2c(O)c3cc(C)ccc3oc2=O)c2c(O)c3cc(C)ccc3oc2=O)ccc1O,3.66
10,COc1cc(C(c2c(O)c3cc(C)ccc3oc2=O)c2c(O)c3cc(C)ccc3oc2=O)cc(OC)c1OC,3.41
11,COc1ccc(C(c2c(O)c3cc(Cl)ccc3oc2=O)c2c(O)c3cc(Cl)ccc3oc2=O)cc1O,3.95
